Measured values taken from publication PMC10793205, “Differential transmetallation of complexes of the anti-cancer thiosemicarbazone, Dp4e4mT: effects on anti-proliferative efficacy, redox activity, oxy-myoglobin and oxy-hemoglobin oxidation” (Chemical Science, 2023).
“Also recorded” adds a separate entry of the source.

Key:
oxy-Mb = target: T1, oxy-Mb (Homo sapiens, UniProt P02144); test: Oxidation of purified oxy-Mb to met-Mb (UV-vis); format: biochemical; conditions: 10 μM agent, oxy-Mb 40 μM; for oxy-Mb oxidation (in words): 1–3 h/20 °C; for oxy-Mb oxidation (met-Mb generation): 3 h incubation, 20 °C
T1 sequence (P02144 1-154): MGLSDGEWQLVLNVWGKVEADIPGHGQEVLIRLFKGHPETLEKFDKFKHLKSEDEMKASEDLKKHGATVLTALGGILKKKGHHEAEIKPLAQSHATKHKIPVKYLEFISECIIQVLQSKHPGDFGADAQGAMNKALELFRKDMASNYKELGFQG
From the text: As such, it was important to examine the effect of the Dp4e4mT complexes on oxy-Hb and oxy-Mb oxidation (Fig. 6 and 7). Comparisons were made to three controls, namely DFO, Dp44mT, and DpC, as well as their Fe(III) complexes. […] In contrast, the Fe(III) complexes of Dp44mT and DpC were positive controls, as they induce oxidation of oxy-Mb.[28,39,42]
Fig. 6 (A and B) Investigation of the effects of Dp4e4mT and its Fe(III), Co(III), Ni(II), Cu(II), Zn(II), Ga(III), and Pd(II) complexes versus the positive controls DFO, Dp44mT, DpC and their Fe(III) complexes (10 μM) on met-Mb generation (% zero time) after an incubation of 1–3 h/20 °C with purified oxy-Mb (40 μM). Results are mean ± SD (3 experiments).
Spectroscopic Examination of Met-Mb and Met-Hb Formation from Oxy-Mb and Oxy- […]
Oxy-Mb and oxy-Hb solutions were prepared following established protocols.8, 17 In brief, solutions of reduced Mb and Hb in PBS (pH 7.2) were prepared by adding 1.2 mL of Na2S2O4 (12 mM) to 38 mL of met-Mb and met-Hb solution (40 μM). 17 Subsequently, oxy-Mb and oxy-Hb were generated by gently passing 150 mL of oxygen (from an air-filled syringe) through the solution containing reduced Mb and Hb, effectively eliminating any residual Na2S2O4. Following this, the oxy-Mb and oxy-Hb solutions were passed through a PD-10 column prepacked with 8.3 mL of Sephadex G-25 and equilibrated with PBS (pH 7.2). 17 In experiments examining the activity of the agents, all complexes were dissolved in 1,2-propanediol, then diluted to 10 µM in PBS (pH 7.2). The experiments were conducted over incubations of 0 to 3 h with the agents. UV-Vis spectra covering the range of 300 to 700 nm were recorded at a temperature of 20°C using a Shimadzu UV−Vis spectrophotometer (UV-1800; Shimadzu, Kyoto, Japan). Concentrations of met-Mb and met-Hb, as well as reduced-Mb and reduced-Hb, were determined at 409 nm and 435 nm, respectively. Concentrations of oxy-Mb and oxy-Hb were determined at 544 nm and 582 nm, respectively. 17

SK-N-MC cells = test: MTT cellular proliferation assay, SK-N-MC neuroepithelioma cells; format: cell-based, human; conditions: for Therapeutic index SK-N-MC: IC50 of MRC-5 cells/IC50 of SK-N-MC cells, 72 h/37 °C; for IC50: SK-N-MC, 37 °C, MTT, mean ± SD (3 experiments)
Procedure: The anti-proliferative activity of Dp4e4mT relative to its complexes with Fe(III), Co(III), Ni(II), Cu(II), Zn(II), Ga(III), and Pd(II) was examined over incubation periods of 24-, 48-, and 72 h/37 °C (Table 2). These studies were performed using human SK-N-MC neuroepithelioma and AsPC-1 pancreatic adenocarcinoma cells that we have previously examined to assay other ligands.[15,28,43] […]
All cell lines were procured from the American Type Culture Collection (ATCC; Manassas, VA). The SK-N-MC neuroepithelioma cell line and the mortal MRC-5 fibroblasts were cultured in minimum essential medium (Sigma-Aldrich), while the AsPC-1 cell line was cultured in Roswell Park Memorial Institute 1640 medium (Thermo Fisher Scientific, MA, USA). Both media were supplemented with 10% fetal calf serum, non-essential amino acids (1 mM), sodium pyruvate (1 mM), L-glutamine (2 mM), penicillin (100 U/mL), streptomycin (100 U/mL), and Fungizone (0.5 µg/mL). Cells were maintained at 37 °C in an incubator under a humidified atmosphere with 5% CO 2, following established protocols. 11 Cellular Proliferation Assay
Cellular proliferation was evaluated through the established 3-(4,5-dimethylthiazol-2-yl)-2,5-diphenyltetrazolium bromide (MTT) proliferation assay, validated by viable cell counts.12 […]
Ligands and complexes were dissolved in DMSO to make a stock solution of 10 mM, subsequently diluted in culture media. For cell culture experiments, the DMSO's maximum concentration remained below 0.5% (v/v), with no discernible impact on proliferation.12 MTT […]
Trypan blue staining.12 Analysis of the data was executed employing MARS Data Analysis Software (BMG LabTech; version 3.30). The concentration of agents necessary to inhibit cellular proliferation by 50% (IC 50) was then calculated. […]

[1] = Transmetallation kinetics with Cu(OAc)2 in DMSO (time-resolved UV-vis); format: physicochemical; conditions: for Observed pseudo first order rate constant kobs, Cu(OAc)2 (only or first step): 10-fold excess of Cu(OAc)2 in DMSO, 25 °C
Procedure: The capacity of the Fe(III), Ni(II), Co(III), Zn(II), Ga(III), and Pd(II) complexes of Dp4e4mT to transmetallate with Cu(II) and/or Fe(III) to result in redox active Cu(II) and Fe(III) complexes could be critical in understanding their anti-proliferative efficacy, redox activity, and ability to oxidize oxy-Mb and oxy-Hb. To examine this, LC-MS spectrometry was performed in DMSO after the addition of 1 equivalent of FeCl3 or Cu(OAc)2 and the solutions then incubated for 24 h/20 °C due to slow reaction kinetics. This solution was then diluted 1 : 1 in methanol and LC-MS performed using a mobile phase consisting of 90% MeOH, 9.9% water, and 0.1% formic acid (Fig. S2–S9 ^†). These investigations were supported by EPR studies in DMSO after the addition of 1 equivalent of FeCl3 or Cu(OAc)2 incubated under the same conditions (Fig. 3A–G). As a third method to investigate transmetallation, kinetic studies using time-resolved UV-vis spectroscopy were performed under pseudo-first order conditions with a 10-fold excess of FeCl3 or Cu(OAc)2 in DMSO (Fig. S11–S16 ^†). The pseudo-first order rate constants were calculated from the time-dependent UV-vis spectroscopy data (at all wavelengths) with Reactlab Kinetics[49] and collected in Table S2. ^† […]
Time-dependent UV-Vis absorption spectra were measured on an Agilent 8453 diode array UV−Vis spectrophotometer, equipped with a thermostatted (± 0.1 °C) multicell transport cooled by a Huber Ministat 230 recirculating cooling bath. Spectral analysis was carried out with Reactlab Kinetics. 10 […]
Table S2. Observed pseudo first order rate constants (k obs, s−1) for reactions of each Dp4e4mT complex with a 10-fold excess of Cu(OAc) 2 or FeCl 3 in DMSO or water (pH 7.4 or 5.0) at 25 °C. […]
[Co(Dp4e4mT)2]+ No reaction No reaction No reaction No reaction […]
a Reaction could not be deciphered by UV-Vis spectroscopy; bchlorido ligand hydrolysis

oxy-Mb oxidation (met-Mb generation) (oxy-Mb)	IC50 (SK-N-MC cells; Homo sapiens, 24 h)	IC50 (SK-N-MC cells; Homo sapiens, 48 h)	IC50 (SK-N-MC cells; Homo sapiens, 72 h)	IC50 (SK-N-MC cells; 24 h)	IC50 (SK-N-MC cells; 48 h)	IC50 (SK-N-MC cells; 72 h)	SMILES	oxy-Mb oxidation (in words) (oxy-Mb)	Therapeutic index SK-N-MC (SK-N-MC cells)	Observed pseudo first order rate constant kobs, Cu(OAc)2 (only or first step) [1]	also measured
–	–	–	–	–	–	–	CCN(C)C([S-])=NN=C(c1ccccn1)c1ccccn1.CCN(C)C([S-])=NN=C(c1ccccn1)c1ccccn1.[Zn+2] [[Zn(Dp4e4mT)2]]	significantly increased oxy-Mb and oxy-Hb oxidation	187	> 0.1 s⁻¹	oxy-Mb oxidation (in words) (oxy-Mb; listed as Dp4e4mT Zn(II) complex): induced marked oxy-Mb oxidation
140 % of the control	> 25000 nM	43 ± 6 nM	6 ± 1 nM	–	–	–	CCN(C)C(=S)NN=C(c1ccccn1)c1ccccn1 [Dp4e4mT, di-2-pyridylketone-4-ethyl-4-methyl-3-thiosemicarbazone]	–	301	–	–
–	–	–	–	> 25000 nM	661 ± 62 nM	285 ± 121 nM	CCN(C)C([S-])=NN=C(c1ccccn1)c1ccccn1.[Cl-].[Pd+2] [[Pd(Dp4e4mT)Cl]]	minimal impact	3	No reaction	oxy-Mb oxidation (in words) (oxy-Mb; listed as Dp4e4mT Pd(II) complex): no appreciable oxidation of oxy-Mb
–	–	–	–	492 ± 34 nM	31 ± 8 nM	3 ± 1 nM	CCN(C)C([S-])=NN=C(c1ccccn1)c1ccccn1.[Cl-].[Cu+2] [[Cu(Dp4e4mT)Cl]]	did not significantly lead to oxidation of oxy-Mb	130	–	–
129 % of the control	> 25000 nM	43 ± 6 nM	6 ± 1 nM	–	–	–	CN(C)C(=S)NN=C(c1ccccn1)c1ccccn1 [Dp44mT, di-2-pyridylketone 4,4-dimethyl-3-thiosemicarbazone, reference compound]	–	152	–	–
213 % of the control	–	–	–	2680 ± 71 nM	1530 ± 37 nM	214 ± 5 nM	CCN(C)C([S-])=NN=C(c1ccccn1)c1ccccn1.CCN(C)C([S-])=NN=C(c1ccccn1)c1ccccn1.[Fe+3] [[Fe(Dp4e4mT)2]^+]	–	9	–	t½, reaction with Cu(OAc)2, first step ([1]; Cu(OAc)2 in DMSO, first of two consecutive first order steps): ~6 min; t½, reaction with Cu(OAc)2, second step ([1]; Cu(OAc)2 in DMSO, second of two consecutive first order steps): ~1 h
–	–	–	–	16220 ± 7 nM	43 ± 6 nM	4 ± 1 nM	CCN(C)C([S-])=NN=C(c1ccccn1)c1ccccn1.CCN(C)C([S-])=NN=C(c1ccccn1)c1ccccn1.[Ga+3] [[Ga(Dp4e4mT)2]^+]	significantly increased oxy-Mb and oxy-Hb oxidation	192	–	oxy-Mb oxidation (in words) (oxy-Mb; listed as Dp4e4mT Ga(III) complex): induced marked oxy-Mb oxidation; IC50 (SK-N-MC cells; 24 h, listed as Dp4e4mT Ga(III) complex): 16200 to 19400 nM; t½, transmetallation with Cu(OAc)2 ([1]; Cu(OAc)2 in DMSO): 3 to 4 h
–	22300 ± 83 nM	88 ± 7 nM	28 ± 9 nM	–	–	–	CN(C(=S)NN=C(c1ccccn1)c1ccccn1)C1CCCCC1 [DpC, di-2-pyridylketone 4-cyclohexyl-4-methyl-3-thiosemicarbazone, reference compound]	–	149	–	–
–	–	–	–	5498 ± 4 nM	1470 ± 61 nM	818 ± 51 nM	CCN(C)C([S-])=NN=C(c1ccccn1)c1ccccn1.CCN(C)C([S-])=NN=C(c1ccccn1)c1ccccn1.[Co+3] [[Co(Dp4e4mT)2]^+]	minimal impact	4	No reaction	oxy-Mb oxidation (in words) (oxy-Mb; listed as Dp4e4mT Co(III) complex): no appreciable oxidation of oxy-Mb
–	–	–	–	> 25000 nM	75 ± 25 nM	18 ± 6 nM	CCN(C)C([S-])=NN=C(c1ccccn1)c1ccccn1.CCN(C)C([S-])=NN=C(c1ccccn1)c1ccccn1.[Ni+2] [[Ni(Dp4e4mT)2]]	low activity; also recorded: minimal impact	250	–	t½, transmetallation with Cu(OAc)2 ([1]; Cu(OAc)2 in DMSO): ~2 h
